For the assay, the target named is T1, GABA A α5 (α5β3γ2) (Homo sapiens, UniProt P18507+P31644).
T1 construct: expressed in transfected cells; host or cells: HEK293, transiently transfected; membrane preparation
The assay is described as follows: [3H]flumazenil competition binding, human GABA A α5 receptor. The conditions noted are these: human receptor α5β3γ2 transiently transfected in HEK293 cells; competition for [3H]flumazenil 0.5 nM; 1 hour at 4° C.; means of two determinations; read-out: hKi GABA A α5. The procedure:
Membrane Preparation and Binding Assay
The affinity of compounds at GABA A receptor subtypes was measured by competition for [3H]flumazenil (85 Ci/mmol; Roche) binding to HEK293 cells expressing rat (stably transfected) or human (transiently transfected) receptors of compositional α1β3γ2, α2β3γ2, α3β3γ2 and α5β3γ2.
Cell pellets were suspended in Krebs-tris buffer (4.8 mM KCl, 1.2 mM CaCl2, 1.2 mM MgCl2, 120 mM NaCl, 15 mM Tris; pH 7.5; binding assay buffer), homogenized by polytron for ca. 20 sec on ice and centrifuged for 60 min at 4° C. (50000 g; Sorvall, rotor: SM24=20000 rpm). The cell pellets were re-suspended in Krebs-tris buffer and homogenized by polytron for ca. 15 sec on ice. Protein was measured (Bradford method, Bio-Rad) and aliquots of 1 mL were prepared and stored at −80° C.
Assays were incubated to equilibrium for 1 hour at 4° C. and harvested onto GF/C uni-filters (Packard) by filtration using a Packard harvester and washing with ice-cold wash buffer (50 mM Tris; pH 7.5). After drying, filter-retained radioactivity was detected by liquid scintillation counting. Ki values were calculated using Excel-Fit (Microsoft) and are the means of two determinations.

The structures appear in SMILES notation.

Turning to `CCCCc1noc(C)c1/C=C/c1nc(C)c(C(=O)NC2CCOCC2)s1` [Example 96, 2-[(E)-2-(3-Butyl-5-methyl-isoxazol-4-yl)-vinyl]-4-methyl-thiazole-5-carboxylic acid (tetrahydro-pyran-4-yl)-amide], the Ki was 1.5 nM.

Turning to `Cc1onc(-c2ccccn2)c1CCc1ncc(C(=O)NC2CCS(=O)(=O)C2)s1` (stereo not shown) [Example 27, 2-[2-(5-Methyl-3-pyridin-2-yl-isoxazol-4-yl)-ethyl]-thiazole-5-carboxylic acid (1,1-dioxo-tetrahydrothiophen-3-yl)-amide], the Ki came to 14 nM.

Regarding `CCCCc1noc(C)c1/C=C/c1nc(C)c(C(=O)NC2CCC2)s1` [Example 115, 2-[(E)-2-(3-Butyl-5-methyl-isoxazol-4-yl)-vinyl]-4-methyl-thiazole-5-carboxylic acid cyclobutylamide], the Ki was determined as 4.7 nM.

`CCCCc1noc(C)c1/C=C/c1nc(C)c(C(=O)NC(C)CO)s1` (racemic) [Example 97, Rac-2-[(E)-2-(3-Butyl-5-methyl-isoxazol-4-yl)-vinyl]-4-methyl-thiazole-5-carboxylic acid (2-hydroxy-1-methyl-ethyl)-amide]: the Ki stood at 4.7 nM.

Turning to `Cc1nc(CCc2c(-c3ccccn3)noc2C)sc1C(=O)N1CCSCC1` [Example 17, {4-Methyl-2-[2-(5-methyl-3-pyridin-2-yl-isoxazol-4-yl)-ethyl]-thiazol-5-yl}-thiomorpholin-4-yl-methanone], the Ki came to 42.8 nM.

For the compound `Cc1onc(-c2ccccc2)c1/C=C/c1ncc(C(=O)NC2CCOC2)s1` (stereo in doubt) [Example 64, (S)-2-[(E)-2-(5-Methyl-3-phenyl-isoxazol-4-yl)-vinyl]-thiazole-5-carboxylic acid (tetra-hydro-furan-3-yl)-amide], the Ki was 1.7 nM.

As for `CNC(=O)c1cnc(/C=C/c2c(-c3ccc(F)cn3)noc2C)s1` [Example 88, 2-{(E)-2-[3-(5-Fluoro-pyridin-2-yl)-5-methyl-isoxazol-4-yl]-vinyl}-thiazole-5-carboxylic acid methylamide], the Ki came to 6.2 nM.

Turning to `CCCCc1noc(C)c1/C=C/c1nc(C)c(C(=O)NN2CCOCC2)s1` [Example 103, 2-[(E)-2-(3-Butyl-5-methyl-isoxazol-4-yl)-vinyl]-4-methyl-thiazole-5-carboxylic acid morpholin-4-ylamide], the Ki came out at 1.8 nM.

With `Cc1nc(CCc2c(-c3ccccc3)noc2C)sc1C(=O)NC1CCOCC1` [Example 5, 4-Methyl-2-[2-(5-methyl-3-phenyl-isoxazol-4-yl)-ethyl]-thiazole-5-carboxylic acid (tetrahydro-pyran-4-yl)-amide], the Ki is 8.2 nM.

As to `Cc1onc(-c2ccccc2)c1/C=C/c1ncc(C(=O)NC2CCOCC2)s1` [Example 63, 2-[(E)-2-(5-Methyl-3-phenyl-isoxazol-4-yl)-vinyl]-thiazole-5-carboxylic acid (tetra-hydro-pyran-4-yl)-amide], the Ki was determined as 1.2 nM.

Regarding `CCCCc1noc(C)c1CCc1ncc(C(=O)NCC(C)O)s1` (stereo not shown) [Example 62, 2-[2-(3-Butyl-5-methyl-isoxazol-4-yl)-ethyl]-thiazole-5-carboxylic acid (2-hydroxy-propyl)-amide], the Ki came to 45 nM.

Turning to `Cc1onc(-c2ccc(F)cn2)c1/C=C/c1ncc(C(=O)N2CCS(=O)(=O)CC2)s1` [Example 83, (1,1-Dioxothiomorpholin-4-yl)-(2-{(E)-2-[3-(5-fluoro-pyridin-2-yl)-5-methyl-isoxazol-4-yl]-vinyl}-thiazol-5-yl)-methanone], the Ki was 27.4 nM.

In the case of `Cc1onc(-c2ccccn2)c1CCc1ncc(C(=O)NCC(F)(F)F)s1` [Example 28, 2-[2-(5-Methyl-3-pyridin-2-yl-isoxazol-4-yl)-ethyl]-thiazole-5-carboxylic acid (2,2,2-trifluoro-ethyl)-amide], the Ki is 17.8 nM.

For `Cc1nc(/C=C/c2c(-c3ccc(F)cn3)noc2C)sc1C(=O)NC1CC1` [Example 73, 2-{(E)-2-[3-(5-Fluoro-pyridin-2-yl)-5-methyl-isoxazol-4-yl]-vinyl}-4-methyl-thiazole-5-carboxylic acid cyclopropylamide], the Ki amounted to 1.6 nM.

For `COC(=O)c1sc(CCc2c(-c3ccc(F)cn3)noc2C)nc1C` [Example 30, 2-{2-[3-(5-Fluoro-pyridin-2-yl)-5-methyl-isoxazol-4-yl]-ethyl}-4-methyl-thiazole-5-carboxylic acid methyl ester], the Ki amounted to 23.6 nM.

As to `CCCCc1noc(C)c1/C=C/c1nc(C)c(C(=O)NC(C)(C)CO)s1` [Example 117, 2-[(E)-2-(3-Butyl-5-methyl-isoxazol-4-yl)-vinyl]-4-methyl-thiazole-5-carboxylic acid (2-hydroxy-1,1-dimethyl-ethyl)-amide], the Ki worked out at 21 nM.

On to `CCCCc1noc(C)c1/C=C/c1nc(C)c(C(=O)N[C@H](CC)CO)s1` [Example 105, 2-[(E)-2-(3-Butyl-5-methyl-isoxazol-4-yl)-vinyl]-4-methyl-thiazole-5-carboxylic acid ((R)-1-hydroxymethyl-propyl)-amide], for which the Ki was determined as 7.9 nM.

As for `Cc1onc(-c2ccc(F)cn2)c1/C=C/c1ncc(C(=O)NC2CCOCC2)s1` [Example 77, 2-{(E)-2-[3-(5-Fluoro-pyridin-2-yl)-5-methyl-isoxazol-4-yl]-vinyl}-thiazole-5-carboxylic acid (tetrahydro-pyran-4-yl)-amide], the Ki was determined as 3.5 nM.

As for `Cc1onc(-c2ccccc2)c1/C=C/c1ncc(C(=O)NC(C)C)s1` [Example 65, 2-[(E)-2-(5-Methyl-3-phenyl-isoxazol-4-yl)-vinyl]-thiazole-5-carboxylic acid isoprop-ylamide], the Ki worked out at 1.3 nM.

As to `CCCCc1noc(C)c1CCc1nc(C)c(C(=O)NCC(C)O)s1` (stereo not shown) [Example 56, 2-[2-(3-Butyl-5-methyl-isoxazol-4-yl)-ethyl]-4-methyl-thiazole-5-carboxylic acid (2-hydroxy-propyl)-amide], the Ki is 16.9 nM.

As to `CCCCc1noc(C)c1/C=C/c1nc(C)c(C(N)=O)s1` [Example 100, 2-[(E)-2-(3-Butyl-5-methyl-isoxazol-4-yl)-vinyl]-4-methyl-thiazole-5-carboxylic acid amide], the Ki turned out to be 2 nM.

With `Cc1onc(-c2ccccc2)c1CNc1ncc(C(=O)NC(C)C)s1` [Example 135, 2-[(5-Methyl-3-phenyl-isoxazol-4-ylmethyl)-amino]-thiazole-5-carboxylic acid isoprop-ylamide], the Ki came out at 9 nM.

In the case of `CCCCc1noc(C)c1/C=C/c1nc(C)c(C(=O)NC(C)C)s1` [Example 93, 2-[(E)-2-(3-Butyl-5-methyl-isoxazol-4-yl)-vinyl]-4-methyl-thiazole-5-carboxylic acid isopropylamide], the Ki amounted to 1.9 nM.

With `Cc1onc(-c2ccccn2)c1CCc1ncc(C(=O)NC2CCOCC2)s1` [Example 24, 2-[2-(5-Methyl-3-pyridin-2-yl-isoxazol-4-yl)-ethyl]-thiazole-5-carboxylic acid (tetra-hydro-pyran-4-yl)-amide], the Ki was 18.8 nM.

Turning to `Cc1onc(-c2ccccc2)c1CCc1ncc(C(=O)NC(C)C)s1` [Example 7, 2-[2-(5-Methyl-3-phenyl-isoxazol-4-yl)-ethyl]-thiazole-5-carboxylic acid isopropyl-amide], the Ki amounted to 13.8 nM.

Take `CCCCc1noc(C)c1/C=C/c1nc(C)c(C(=O)NC2CC2)s1` [Example 113, 2-[(E)-2-(3-Butyl-5-methyl-isoxazol-4-yl)-vinyl]-4-methyl-thiazole-5-carboxylic acid cyclopropylamide]: the Ki came out at 5.1 nM.

Consider `CCCCc1noc(C)c1CCc1nc(C)c(C(=O)NCC(C)(C)O)s1` [Example 49, 2-[2-(3-Butyl-5-methyl-isoxazol-4-yl)-ethyl]-4-methyl-thiazole-5-carboxylic acid (2-hydroxy-2-methyl-propyl)-amide], for which the Ki amounted to 43.3 nM.

Consider `CCCCc1noc(C)c1CCc1ncc(C(=O)NC(C)C)s1` [Example 57, 2-[2-(3-Butyl-5-methyl-isoxazol-4-yl)-ethyl]-thiazole-5-carboxylic acid isopropylamide], for which the Ki was 39.2 nM.

On to `CCCCc1noc(C)c1/C=C/c1nc(C)c(C(=O)NC2CCCC2O)s1` (stereo in doubt) [Example 114, 2-[(E)-2-(3-Butyl-5-methyl-isoxazol-4-yl)-vinyl]-4-methyl-thiazole-5-carboxylic acid ((1R,2R)-2-hydroxy-cyclopentyl)-amide], for which the Ki came to 6.4 nM.

With `CCCCc1noc(C)c1/C=C/c1ncc(C(=O)NC(C)C)s1` [Example 124, 2-[(E)-2-(3-Butyl-5-methyl-isoxazol-4-yl)-vinyl]-thiazole-5-carboxylic acid isoprop-ylamide], the Ki was 5.5 nM.

`Cc1nc(/C=C/c2c(-c3ccc(F)cn3)noc2C)sc1C(=O)NCC1CC1` [Example 75, 2-{(E)-2-[3-(5-Fluoro-pyridin-2-yl)-5-methyl-isoxazol-4-yl]-vinyl}-4-methyl-thiazole-5-carboxylic acid cyclopropylmethyl-amide]: the Ki turned out to be 1.8 nM.
